# Marks after values point to notes of the source that are not given here.
# System: Candida albicans (ATCC no. 10231)
# Assay: MIC determination by broth microdilution (NCCLS), visual scoring
# Type: cell-based
# Conditions: Candida albicans, ATCC10231, read-out: MIC80 C. albicans
# Procedure: The antifungal activity of the 2,4,6-pyrimidinetrione analogs shown in Schemes 2-6 were evaluated in vitro using Candida albicans (ATCC no. 10231) and Candida glabrata (ATCC no 48435). All assays were done in accordance with NCCLS reference documents^29.
# Master stock concentrations of all tested compounds were prepared to ensure that the maximum final concentration of DMSO was 1% or less. Subsequent 2-fold serial dilutions were made using sterile water to a final concentration of 1280-5.00 μg/ml. A final 10-fold dilution of each drug was made by aliquotting 0.1 mL of each drug dilution into 0.9 mL of fungal suspension in RPMI 1640 media with 10 mM HEPES buffer added (see methodology below), giving final concentrations tested in the range of 128-0.5 μg/ml.
# Antifungal susceptibility studies and minimal inhibitory concentrations (MIC) values for Candida albicans (ATCC no. 10231) and Candida glabrata (ATCC no. 48435) were determined by the broth microdilution technique in accordance with NCCLS reference documents. Microdilution panels ranged from 0.5 to 128 μg/mL. All organisms were subcultured on Sabouraud agar and passaged to ensure purity and viability. The initiating inocula were prepared by picking 5-7 isolated colonies ˜1 mm in diameter from freshly prepared YM agar plates. Colonies were resuspended in sterile water, vortexed and the cell density was adjusted spectrophotometrically to the transmittance of a 0.5 McFarland standard at a wavelength of 530 nm, to yield a stock suspension of 1×10^6-5×10^6 cells/mL. The stock was allowed to hydrate for 30 minutes at room temperature. A working suspension was then made by diluting the stock 1:50 with RPMI 1640 media containing HEPES buffer. The working suspension was used for all assays. The plates were incubated at 35° C. for 48-72 hours in a humid atmosphere. Growth was scored visually. MIC values are defined as the lowest concentration of agent that prevents any discernible growth, ˜80% reduction of growth, as compared with drug-free control wells. All assays were run in parallel using either fluconazole or amphotericin B at the NCCLS recommended concentrations^29 as a drug control (Sigma-Aldrich).
row,Compound,MIC80 [µg/mL]
1,"C/C(=N\N)C1C(=O)NC(=O)NC1=O [BA118, 5-[(1E)-1-hydrazinylideneethyl]pyrimidine-2,4,6-trione]",> 125
2,"CN1C(=O)C(/C=N/N)C(=O)N(C)C1=O [BA117, 5-[(E)-hydrazinylidenemethyl]-1,3-dimethylpyrimidine-2,4,6-trione]",125
3,"CN/N=C(\C)C1C(=O)N(C)C(=O)N(C)C1=O [BA123, 1,3-dimethyl-5-[(1E)-1-(2-methylhydrazinylidene)ethyl]pyrimidine-2,4,6(1H,3H,5H)-trione]",> 125
4,"CN/N=C/C1C(=O)N(C)C(=O)N(C)C1=O [BA122, 1,3-dimethyl-5-[(E)-(2-methylhydrazinylidene)methyl]pyrimidine-2,4,6-trione]",62
5,"CN/N=C/C1C(=O)NC(=O)NC1=O [BA120, 5-[(E)-(2-methylhydrazinylidene)methyl]pyrimidine-2,4,6-trione]",> 125
6,"N/N=C/C1C(=O)NC(=O)NC1=O [BA116, 5-[(E)-hydrazinylidenemethyl]pyrimidine-2,4,6-trione]",125

# Same assay, conditions: Table 2, 5-Arylidene-2,4,6-pyrimidinetriones
row,Compound,MIC80 C. albicans [µg/mL]
1,O=C1NC(=O)C(=CC=Cc2ccccc2)C(=O)N1 [BA42],62

# Same assay, conditions: Table 5, Schiff Bases of 5-acylpyrimidinetriones
row,Compound,MIC80 C. albicans
1,COc1ccc(N=CC2C(=O)NC(=O)NC2=O)cc1 [BA97],"— (none of the 5-acyl-2,4,6-pyrimidinetriones, 5-alkylated pyrimidinetriones or the 5,5-dialkylated pyrimidinetriones showed antifungal activity through 125 μg/mL)"
2,O=C1NC(=O)C(/C=N/c2nnc[nH]2)C(=O)N1 [BA107],"— (none of the 5-acyl-2,4,6-pyrimidinetriones, 5-alkylated pyrimidinetriones or the 5,5-dialkylated pyrimidinetriones showed antifungal activity through 125 μg/mL)"
3,COc1ccc(N=C(C)C2C(=O)N(C)C(=O)N(C)C2=O)cc1 [BA99],"— (none of the 5-acyl-2,4,6-pyrimidinetriones, 5-alkylated pyrimidinetriones or the 5,5-dialkylated pyrimidinetriones showed antifungal activity through 125 μg/mL)"
4,COc1ccc(N=C(C)C2C(=O)NC(=O)NC2=O)cc1 [BA100],"— (none of the 5-acyl-2,4,6-pyrimidinetriones, 5-alkylated pyrimidinetriones or the 5,5-dialkylated pyrimidinetriones showed antifungal activity through 125 μg/mL)"
5,O=C1NC(=O)C(/C=N/C2N=NN=N2)C(=O)N1 [BA111],"— (none of the 5-acyl-2,4,6-pyrimidinetriones, 5-alkylated pyrimidinetriones or the 5,5-dialkylated pyrimidinetriones showed antifungal activity through 125 μg/mL)"
6,CN1C(=O)C(C=Nc2ccc(-c3ccccc3)cc2)C(=O)N(C)C1=O [BA106],"— (none of the 5-acyl-2,4,6-pyrimidinetriones, 5-alkylated pyrimidinetriones or the 5,5-dialkylated pyrimidinetriones showed antifungal activity through 125 μg/mL)"
7,O=C1NC(=O)C(C=Nc2ccc([N+](=O)[O-])cc2)C(=O)N1 [BA101],"— (none of the 5-acyl-2,4,6-pyrimidinetriones, 5-alkylated pyrimidinetriones or the 5,5-dialkylated pyrimidinetriones showed antifungal activity through 125 μg/mL)"
8,O=C1NC(=O)C(/C=N/n2cnnc2)C(=O)N1 [BA109],"— (none of the 5-acyl-2,4,6-pyrimidinetriones, 5-alkylated pyrimidinetriones or the 5,5-dialkylated pyrimidinetriones showed antifungal activity through 125 μg/mL)"
9,COc1ccc(N=CC2C(=O)N(C)C(=O)N(C)C2=O)cc1 [BA98],"— (none of the 5-acyl-2,4,6-pyrimidinetriones, 5-alkylated pyrimidinetriones or the 5,5-dialkylated pyrimidinetriones showed antifungal activity through 125 μg/mL)"
10,O=C1NC(=O)C(/C=N/c2ccc(-c3ccccc3)cc2)C(=O)N1 [BA105],"— (none of the 5-acyl-2,4,6-pyrimidinetriones, 5-alkylated pyrimidinetriones or the 5,5-dialkylated pyrimidinetriones showed antifungal activity through 125 μg/mL)"
11,O=C1NC(=O)C(C=Nc2ccccn2)C(=O)N1 [BA103],"— (none of the 5-acyl-2,4,6-pyrimidinetriones, 5-alkylated pyrimidinetriones or the 5,5-dialkylated pyrimidinetriones showed antifungal activity through 125 μg/mL)"
12,CN1C(=O)C(/C=N/c2nnc[nH]2)C(=O)N(C)C1=O [BA108],"— (none of the 5-acyl-2,4,6-pyrimidinetriones, 5-alkylated pyrimidinetriones or the 5,5-dialkylated pyrimidinetriones showed antifungal activity through 125 μg/mL)"

# Same assay, conditions: Table 8, N-Acylhydrazones of 5-Acylpyrimidinetriones
row,Compound,MIC80 C. albicans
1,COc1ccc(C(=O)NN=C(C)C2C(=O)NC(=O)NC2=O)cc1 [BA134],"— (none of the 5-acyl-2,4,6-pyrimidinetriones, 5-alkylated pyrimidinetriones or the 5,5-dialkylated pyrimidinetriones showed antifungal activity through 125 μg/mL)"
2,COc1ccc(C(=O)NN=C(C)C2C(=O)N(C)C(=O)N(C)C2=O)cc1 [BA135],"— (none of the 5-acyl-2,4,6-pyrimidinetriones, 5-alkylated pyrimidinetriones or the 5,5-dialkylated pyrimidinetriones showed antifungal activity through 125 μg/mL)"
3,CN1C(=O)C(/C=N/NC(=O)c2ccccc2)C(=O)N(C)C1=O [BA125],"— (none of the 5-acyl-2,4,6-pyrimidinetriones, 5-alkylated pyrimidinetriones or the 5,5-dialkylated pyrimidinetriones showed antifungal activity through 125 μg/mL)"
4,CC(=NNC(=O)c1ccc([N+](=O)[O-])cc1)C1C(=O)NC(=O)NC1=O [BA130],"— (none of the 5-acyl-2,4,6-pyrimidinetriones, 5-alkylated pyrimidinetriones or the 5,5-dialkylated pyrimidinetriones showed antifungal activity through 125 μg/mL)"
5,COc1ccc(C(=O)N/N=C/C2C(=O)NC(=O)NC2=O)cc1 [BA132],"— (none of the 5-acyl-2,4,6-pyrimidinetriones, 5-alkylated pyrimidinetriones or the 5,5-dialkylated pyrimidinetriones showed antifungal activity through 125 μg/mL)"
6,CC(=NNC(=O)c1ccccc1)C1C(=O)N(C)C(=O)N(C)C1=O [BA127],"— (none of the 5-acyl-2,4,6-pyrimidinetriones, 5-alkylated pyrimidinetriones or the 5,5-dialkylated pyrimidinetriones showed antifungal activity through 125 μg/mL)"
7,C/C(=N\NC(=O)c1ccccc1)C1C(=O)NC(=O)NC1=O [BA126],"— (none of the 5-acyl-2,4,6-pyrimidinetriones, 5-alkylated pyrimidinetriones or the 5,5-dialkylated pyrimidinetriones showed antifungal activity through 125 μg/mL)"

# Same assay, conditions: Table 8, values marked * (no footnote in this table)
row,Compound,MIC80 C. albicans
1,CN1C(=O)C(/C=N/NC(=O)c2ccc([N+](=O)[O-])cc2)C(=O)N(C)C1=O [BA129],62* μg/mL
2,O=C1NC(=O)C(/C=N/NC(=O)c2ccc([N+](=O)[O-])cc2)C(=O)N1 [BA128],62* μg/mL
3,COc1ccc(C(=O)N/N=C/C2C(=O)N(C)C(=O)N(C)C2=O)cc1 [BA133],62* μg/mL

# Same assay, conditions: Table 9, Benzenesuifonohydrazones of 5-Acylpyrimidinetrione
row,Compound,MIC80 C. albicans
1,Cc1ccc(S(=O)(=O)N/N=C/C2C(=O)N(C)C(=O)N(C)C2=O)cc1 [BA115],"— (none of the 5-acyl-2,4,6-pyrimidinetriones, 5-alkylated pyrimidinetriones or the 5,5-dialkylated pyrimidinetriones showed antifungal activity through 125 μg/mL)"
2,O=C1NC(=O)C(C=NNS(=O)(=O)c2ccccc2)C(=O)N1 [BA136],"— (none of the 5-acyl-2,4,6-pyrimidinetriones, 5-alkylated pyrimidinetriones or the 5,5-dialkylated pyrimidinetriones showed antifungal activity through 125 μg/mL)"
3,C/C(=N\NS(=O)(=O)c1ccc(C)cc1)C1C(=O)NC(=O)NC1=O [BA114],"— (none of the 5-acyl-2,4,6-pyrimidinetriones, 5-alkylated pyrimidinetriones or the 5,5-dialkylated pyrimidinetriones showed antifungal activity through 125 μg/mL)"
4,C/C(=N\NS(=O)(=O)c1ccccc1)C1C(=O)NC(=O)NC1=O [BA138],"— (none of the 5-acyl-2,4,6-pyrimidinetriones, 5-alkylated pyrimidinetriones or the 5,5-dialkylated pyrimidinetriones showed antifungal activity through 125 μg/mL)"
5,C/C(=N\NS(=O)(=O)c1ccccc1)C1C(=O)N(C)C(=O)N(C)C1=O [BA139],"— (none of the 5-acyl-2,4,6-pyrimidinetriones, 5-alkylated pyrimidinetriones or the 5,5-dialkylated pyrimidinetriones showed antifungal activity through 125 μg/mL)"

# Same assay, conditions: Table 9, value marked ** (footnote not given)
row,Compound,MIC80 C. albicans
1,Cc1ccc(S(=O)(=O)N/N=C/C2C(=O)NC(=O)NC2=O)cc1 [BA113],16** μg/mL

# — patent US20160235752A1, “COMPOSITIONS, METHODS OF USE, AND METHODS OF TREATMENT” (THE UNIVERSITY OF NEW ORLEANS, priority 2013, published 2016)
